Measured values from patent US6319915A, “Benzazepine derivatives as inhibitors of hyperproliferation diseases” (Pfizer Inc., priority 2000, dated 2001).

biological target: T1, VEGF/GAG (glycosaminoglycan) (Homo sapiens, UniProt P15692); experiment: in vitro inhibition of VEGF/GAG (glycosaminoglycan) binding ([125I]heparin-16-mer / VEGF165 filter binding); details: purified VEGF165 20 nM, 60 minutes at room temperature, 0.16% DMSO
T1 construct: purchased Repligen, Inc
T1 sequence (P15692 1-191 isoform P15692-4): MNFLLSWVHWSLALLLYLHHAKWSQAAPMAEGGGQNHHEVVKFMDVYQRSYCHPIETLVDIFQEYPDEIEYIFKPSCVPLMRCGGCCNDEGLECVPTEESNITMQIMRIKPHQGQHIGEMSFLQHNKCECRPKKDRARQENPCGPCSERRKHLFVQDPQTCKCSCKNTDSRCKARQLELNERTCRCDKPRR
Method: The in vitro activity of the compounds of formula I in inhibiting VEGF/GAG (glycosaminoglycan) binding may be measured using the assay described in U.S. Pat. No. 5,795,860, the subject matter of which is incorporated herein by reference.
Using mixed cellulose ester 96-well filter plates, 150 μL of Dulbeccos PBS (phosphate buffered saline) containing 10% ovalbumin is added. Compound (5.0 μL) is added at a final concentration of […]. Compounds are dissolved in 8% DMSO (final DMSO concentration is 0.16%) and tested at concentrations of 32, 10, 3.2, 1.0, 0.32 and 0.10 μM. A mixture of [^125 I]heparin-16-mer (4500 cpm per well), purified VEGF165 (20 nM final concentration/well, prepared by Repligen, Inc.) and Dulbeccos PBS with 10% ovalbumin is added to the 96-well plate in a volume of 100 μL. Nonspecific binding is defined using 10 μM heparin-sodium from porcine intestinal mucosa. The assay plate is incubated for 60 minutes at room temperature, filtered using a Millipore filtration apparatus, the plastic bottom plate is removed and the filter plate is allowed to completely dry. The plate bottom is sealed with plastic plate seal and 25 μL of scintillation cocktail is added to each well. The top plate is sealed and is counted for radioactivity on a Microbeta Scintillation Counter. The assay is run in a final volume of 250 μL.

Going from `CC1(C)CCCC(C)(C)N1C(=O)CN1C(=O)C(NC(=O)Nc2cccc(-c3nnn[nH]3)c2)COc2cc(F)ccc21` (centres unmarked) [1-{3-Fluoro-8-oxo-9-[2-oxo-2-(2,2,6,6-tetramethyl-piperidin-1-yl)-ethyl]-6,7,8,9-tetrahydro-5-oxa-9-aza-benzocyclohepten-7-yl}-3-[3-(1H-tetrazol-5-yl)-phenyl]-urea] to `CC1(C)CN(C(=O)CN2C(=O)C(NC(=O)Nc3cccc(-c4nnn[nH]4)c3)COc3cc(F)ccc32)CC(C)(C)C1` (centres unmarked) [1-{3-Fluoro-8-oxo-9-[2-oxo-2-(3,3,5,5-tetramethyl-piperidin-1-yl)-ethyl]-6,7,8,9-tetrahydro-5-oxa-9-aza-benzocyclohepten-7-yl}-3-[3-(1H-tetrazol-5-yl)-phenyl]-urea], the IC50 rises from 1700 nM to 3700 nM (2.2-fold). The first is the more potent here.

Going from `CC1(C)CN(C(=O)CN2C(=O)C(NC(=O)Nc3cccc(-c4nnn[nH]4)c3)CSc3ccccc32)CC(C)(C)C1` (centres unmarked) [1-{4-Oxo-5-[2-oxo-2-(3,3,5,5-tetramethyl-piperidin-1-yl)-ethyl]-2,3,4,5-tetrahydro-benzo[b][1,4]thiazepin-3-yl}-3-[3-(1H-tetrazol-5-yl)-phenyl]-urea] to `Cc1ccc2c(c1)N(CC(=O)NC(C)(C)C)C(=O)C(NC(=O)Nc1cccc(-c3nnn[nH]3)c1)CC2C1CCCCC1` (centres unmarked) [N-tert-Butyl-2-(5-cyclohexyl-8-methyl-2-oxo-3-{3-[3-(1H-tetrazol-5-yl)-phenyl]-ureido}-2,3,4,5-tetrahydro-benzo[b]azepin-1-yl)-acetamide], the IC50 falls from 6700 nM to 4300 nM (1.6-fold).

`COc1ccccc1C1CC(NC(=O)Nc2cccc(-c3nnn[nH]3)c2)C(=O)N(CC(=O)NC2(C)CCCCC2)C(c2ccccc2)C1` (centres unmarked) [2-(5-(2-Methoxy-phenyl)-2-oxo-7-phenyl-3-{3-[3-(1H-tetrazol-5-yl)-phenyl]-ureido}-azepan-1-yl)-N-(1-methyl-cyclohexyl)-acetamide] and `Cc1ccccc1C1CC(NC(=O)Nc2cccc(-c3nnn[nH]3)c2)C(=O)N(CC(=O)NC2(C)CCCCC2)C(c2ccccc2)C1` (centres unmarked) [N-(1-Methyl-cyclohexyl)-2-(2-oxo-7-phenyl-3-{3-[3-(1H-tetrazol-5-yl)-phenyl]-ureido}-5-o-tolyl-azepan-1-yl)-acetamide] are within 1.5-fold of each other in IC50: 1900 nM for the first, 2000 nM for the second.

Going from `COc1ccccc1C1CC(NC(=O)Nc2cccc(C(=O)NS(C)(=O)=O)c2)C(=O)N(CC(=O)NC2(C)CCCCC2)C(c2ccccc2)C1` (centres unmarked) [2-[3-[3-(3-Methanesulfonylaminocarbonyl-phenyl)-ureido]-5-(2-methoxy-phenyl)-2-oxo-7-phenyl-azepan-1-yl]-N-(1-methyl-cyclohexyl)-acetamide] to `COc1ccccc1C1CC(NC(=O)Nc2cccc(C(=O)Nc3nnn[nH]3)c2)C(=O)N(CC(=O)NC2(C)CCCCC2)C(c2ccccc2)C1` (centres unmarked) [3-(3-{5-(2-Methoxy-phenyl)-1-[(1-methyl-cyclohexylcarbamoyl)-methyl]-2-oxo-7-phenyl-azepan-3-yl}-ureido)-N-(1H-tetrazol-5-yl)-benzamide], the IC50 falls from 3000 nM to 900 nM (3.3-fold). The second is the more potent here.

Compared with `Cc1ccccc1C1CC(NC(=O)Nc2ccc3[nH]nnc3c2)C(=O)N(CC(=O)NC(C)(C)C)C(c2ccccc2)C1` (centres unmarked) [2-{3-[3-(1H-Benzotriazol-5-yl)-ureido]-2-oxo-7-phenyl-5-o-tolyl-azepan-1-yl}-N-tert-butyl-acetamide], `Cc1ccccc1C1CC(NC(=O)Nc2cccc(-c3nnn[nH]3)c2)C(=O)N(CC(=O)NC(C)(C)C)C(c2ccccc2)C1` (centres unmarked) [N-tert-Butyl-2-(2-oxo-7-phenyl-3-{3-[3-(1H-tetrazol-5-yl)-phenyl]-ureido}-5-o-tolyl-azepan-1-yl)-acetamide] is 2.3-fold higher in IC50: 1600 nM for the first, 3700 nM for the second. The first is the more potent here.

Compared with `Cc1ccccc1C1CC(NC(=O)Nc2cccc(C(=O)NS(=O)(=O)c3ccccc3)c2)C(=O)N(CC(=O)NC(C)(C)C)C(c2ccccc2)C1` (centres unmarked) [2-{3-[3-(3-Benzenesulfonylaminocarbonyl-phenyl)-ureido]-2-oxo-7-phenyl-5-o-tolyl-azepan-1-yl}-N-tert-butyl-acetamide], `Cc1ccccc1C1CC(NC(=O)Nc2cccc(C(=O)NS(=O)(=O)Cc3ccccc3)c2)C(=O)N(CC(=O)NC(C)(C)C)C(c2ccccc2)C1` (centres unmarked) [N-tert-Butyl-2-{2-oxo-7-phenyl-3-[3-(3-phenylmethanesulfonylaminocarbonyl-phenyl)-ureido]-5-o-tolyl-azepan-1-yl}-acetamide] is 1.7-fold higher in IC50: 1400 nM for the first, 2400 nM for the second. The first is the more potent here.

`Cc1ccccc1C1CC(NC(=O)Nc2cccc(C(=O)Nc3nnn[nH]3)c2)C(=O)N(CC(=O)NC2(C)CCCCC2)C(c2ccccc2)C1` (centres unmarked) [3-(3-{1-[(1-Methyl-cyclohexylcarbamoyl)-methyl]-2-oxo-7-phenyl-5-o-tolyl-azepan-3-yl}-ureido)-N-(1H-tetrazol-5-yl)-benzamide] and `Cc1ccccc1C1CC(NC(=O)Nc2cccc(C(=O)NS(=O)(=O)C(F)(F)F)c2)C(=O)N(CC(=O)NC2(C)CCCCC2)C(c2ccccc2)C1` (centres unmarked) [N-(1-Methyl-cyclohexyl)-2-{2-oxo-7-phenyl-5-o-tolyl-3-[3-(3-trifluoromethanesulfonylaminocarbonyl-phenyl)-ureido]-azepan-1-yl}-acetamide] are within 1.5-fold of each other in IC50: 2300 nM for the first, 1700 nM for the second.

First: Cc1ccccc1C1CC(NC(=O)Nc2cccc(C(=O)Nc3nnc(C(F)(F)F)s3)c2)C(=O)N(CC(=O)NC(C)(C)C)C(c2ccccc2)C1 (centres unmarked) [3-{3-[1-(tert-Butylcarbamoyl-methyl)-2-oxo-7-phenyl-5-o-tolyl-azepan-3-yl]-ureido}-N-(5-trifluoromethyl-[1,3,4]thiadiazol-2-yl)-benzamide]
Second: Cc1ccccc1C1CC(NC(=O)Nc2cccc(C(=O)O)c2)C(=O)N(CC(=O)NC(C)(C)C)C(c2ccccc2)C1 (centres unmarked) [3-{3-[1-(tert-Butylcarbamoyl-methyl)-2-oxo-7-phenyl-5-o-tolyl-azepan-3-yl]-ureido}-benzoic acid]
The IC50 of the first is 2.3-fold lower: 8600 nM for the first, 20000 nM for the second.

Going from `COc1ccccc1C1CC(NC(=O)Nc2cccc(C(=O)Nc3nnn[nH]3)c2)C(=O)N(CC(=O)NC(C)(C)C)C(c2ccccc2)C1` (centres unmarked) [3-{3-[1-(tert-Butylcarbamoyl-methyl)-5-(2-methoxy-phenyl)-2-oxo-7-phenyl-azepan-3-yl]-ureido}-N-(1H-tetrazol-5-yl)-benzamide] to `COc1ccccc1C1CC(NC(=O)Nc2cccc(-c3nnn[nH]3)c2)C(=O)N(CC(=O)NC(C)(C)C)C(c2ccccc2)C1` (centres unmarked) [N-tert-Butyl-2-(5-(2-methoxy-phenyl)-2-oxo-7-phenyl-3-{3-[3-(1H-tetrazol-5-yl)-phenyl]-ureido}-azepan-1-yl)-acetamide], the IC50 falls from 1700 nM to 700 nM (2.4-fold). The second is the more potent here.

`COc1ccccc1C1CC(NC(=O)Nc2cccc(C(=O)O)c2)C(=O)N(CC(=O)NC(C)(C)C)C(c2ccccc2)C1` (centres unmarked) [3-{3-[1-(tert-Butylcarbamoyl-methyl)-5-(2-methoxy-phenyl)-2-oxo-7-phenyl-azepan-3-yl]-ureido}-benzoic acid] and `COc1ccccc1C1CC(NC(=O)Nc2cccc(C(=O)NS(C)(=O)=O)c2)C(=O)N(CC(=O)NC(C)(C)C)C(c2ccccc2)C1` (centres unmarked) [N-tert-Butyl-2-[3-[3-(3-methanesulfonylaminocarbonyl-phenyl)-ureido]-5-(2-methoxy-phenyl)-2-oxo-7-phenyl-azepan-1-yl]-acetamide] are within 1.5-fold of each other in IC50: 4300 nM for the first, 5800 nM for the second.

`Cc1ccc2c(c1)N(CC(=O)NC(C)(C)C)C(=O)C(NC(=O)Nc1cccc(C(=O)O)c1)CC2c1ccccc1` (centres unmarked) [3-{3-[1-(tert-Butylcarbamoyl-methyl)-8-methyl-2-oxo-5-phenyl-2,3,4,5-tetrahydro-1H-benzo[b]azepin-3-yl]-ureido}-benzoic acid] and `Cc1ccc2c(c1)N(CC(=O)NC(C)(C)C)C(=O)C(NC(=O)Nc1cccc(C(=O)NS(C)(=O)=O)c1)CC2c1ccccc1` (centres unmarked) [N-tert-Butyl-2-{3-[3-(3-methanesulfonylaminocarbonyl-phenyl)-ureido]-8-methyl-2-oxo-5-phenyl-2,3,4,5-tetrahydro-benzo[b]azepin-1-yl}-acetamide] are within 1.5-fold of each other in IC50: 9800 nM for the first, 11000 nM for the second.

`Cc1cccc(NC(=O)NC2CC(c3ccccc3C)CC(c3ccccc3)N(CC(=O)O)C2=O)c1` (centres unmarked) [[2-Oxo-7-phenyl-5-o-tolyl-3-(3-m-tolyl-ureido)-azepan-1-yl]-acetic acid] was tested, and the IC50 was 2400 nM.
